Assay results: US5028727A, “Platinum-(IV)-diamine complex” (Nederlandse Organisatie Voor …, priority 1988, dated 1991)
“Also recorded” adds a separate entry of the source.

Experiments:
[1] = tested on: L1210 murine leukaemia; experiment: Activity against L1210 murine leukaemia; type: in vivo, CDF1 mice; conditions: for % T/C: once on day 1
Protocol: The platinum complex was investigated for anti-tumour action against L1210 murine leukaemia. CDF1 mice with a weight of 20 g were inoculated intraperitoneally with 10^6 ascitic cells of L1210 leukaemia. The administration of the active complex was started the day following the intraperitoneal implantation of the tumour. The complex was administered in diverse amounts by intraperitoneal injections. Groups of 6 mice were used for each dose and they were treated with a single dose of the complex on the treatment day. A group of ten control mice treated with a physiological saline solution was included in the experiment. Mice treated with cis-diamine-dichloro-platinum (cis-platinum) were included as positive comparisons. The mice were weighed before the treatment and again on the fifth or sixth day and the average change in weight was taken as a measure of the toxicity. The animals were assessed daily for mortality and the experiments were ended after 30 days. The tumour activity was determined on the basis of % T/C, which is the ratio of mean survival time of the group treated with the active complex relative to the mean survival time of the control group treated with a physiological saline solution times 100. The mice treated with physiological saline solution usually have a mean survival time of 7 days. A compound is regarded as active when this gives a T/C ≥125%.
=Dose is mg/kg administered i.p., once on day 1.

[2] = tested on: B16 melanoma; experiment: Action against B16 melanoma; type: in vivo, BDF1 mice; conditions: day 1-9
Protocol: BDF1 mice, 10 per group, are inoculated intraperitoneally with 0.5 ml of a 10% (weight/vol) homogeneous tissue suspension of B16 melanoma. Intraperitoneal treatment with the active compound was started one day after the implantation and continued daily for a total of 9 days. The control group treated with a physiological saline solution and groups treated with cis-platinum were included in each experiment. The mice were assessed daily for survival and tests were stopped after 60 days. The mean survival time of the mice treated with the active agent relative to that of the comparison (% T/C) was used as a measure for the anti-tumour action. A compound is regarded as active with a % T/C of 125%.
=Dose is mg/kg per injection administered i.p. on day 1-9

[3] = tested on: tumour cells resistant to cis-platinum (A2780/124 and A2780/DDP); experiment: Action against tumour cells resistant to cis-platinum; type: cell-based, human
Protocol: For cis-platinum the corresponding values are 10 and 12.6 respectively.
(§1) Logarithmically growing cells were harvested by mild trypsinisation and 4,000 cells were added to a microtitre plate with 96 wells (Costar). […] Formalin (10%) in a phosphate-buffered physiological saline solution was added and the cells were fixed for 10 minutes.

[4] = tested on: A2780/DDP; experiment: In vitro cytotoxicity, A2780/DDP sub-line resistant to cis-platinum; type: cell-based, human; conditions: for IC50: A2780/DDP, 72 hours incubation, crystal violet
Protocol: as §1

[5] = tested on: A2780 human ovary carcinoma; experiment: In vitro cytotoxicity, A2780 human ovary carcinoma; type: cell-based; conditions: 72 hours incubation, crystal violet
Protocol: as §1

[6] = tested on: M5076 sarcoma; experiment: Action against subcutaneously implanted M5076 sarcoma; type: in vivo, BDF1 mice; conditions: day 5, 9, 13 and 17
Protocol: The complex was also assessed for anti-tumour action against subcutaneously implanted M5076 sarcoma. BDF1 mice, 8 per group, were inoculated subcutaneously with a fragment of a M5076 tumour. The mice were treated intravenously starting 5 days after the implantation and again on days 9, 13 and 17. […] Four doses of the complex were tested. A comparison group treated with physiological saline solution and groups treated with cis-platinum are included in this experiment. The mice were assessed daily for survival and the tests were ended after 75 to 80 days.

[7] = tested on: B16-F10 murine melanoma; experiment: In vitro cytotoxicity, B16-F10 murine melanoma; type: cell-based; conditions: 72 hours incubation, crystal violet
Protocol: as §1

[8] = tested on: A2780/124; experiment: In vitro cytotoxicity, A2780/124 sub-line resistant to cis-platinum; type: cell-based, human; conditions: for IC50: A2780/124, 72 hours incubation, crystal violet
Protocol: as §1

[9] = tested on: HCT-116 human colon carcinoma; experiment: In vitro cytotoxicity, HCT-116 human colon carcinoma; type: cell-based; conditions: HCT116; 72 hours incubation; crystal violet
Protocol: as §1

[10] = tested on: tumours; conditions: Rosenberg et al., Nature 222 (1969); cited from earlier work
[11] = resistance criterion: ratio ≥4.0

SMILES | % T/C ([1]; 4 mg/kg i.p.) | % T/C ([1]; 6 mg/kg i.p.) | % T/C ([1]; 8 mg/kg i.p.) | % T/C ([2]; 0.4 mg/kg per injection i.p.) | % T/C ([2]; 0.8 mg/kg per injection i.p.) | % T/C ([2]; 1.6 mg/kg per injection i.p.) | % T/C ([2]; 2.4 mg/kg per injection i.p.) | IC50 [4] | IC50 [5] | % T/C ([6]; 3 mg/kg i.v.) | % T/C ([6]; 4 mg/kg i.v.) | IC50 [7] | IC50 [8] | IC50 [9] | further results
NCC1(CN)CCCC1.O=S(=O)([O-])[O-].[Cl][Pt+2][Cl] [TNO-40, Cis-sulphato-trans-dichloro-1,1-bis(aminomethyl)cyclopentane-platinum-(IV)] | 193% | 186% | 180% | 137% | 163% | 139% | 83% | 23 µg/mL | 6.4 µg/mL | 126% | 125% | 7.4 µg/mL | 21 µg/mL | 16 µg/mL | % T/C ([1]; 2,5 mg/kg i.p.): 179%; anti-tumour action against L1210 murine leukaemia ([1]; active = T/C ≥125%, all doses investigated): active at all doses investigated; % T/C ([2]; 0.2 mg/kg per injection i.p.): 127%; action against cell lines resistant to cis-platinum [3]: exhibits an anti-tumor action; also recorded: surprisingly good action; toxicity ([6]; 5 mg/kg i.v.): toxic; toxicity ([6]; 6 mg/kg i.v.): toxic
N.N.[Cl][Pt][Cl] [Cis-platinum, cis-diamine-dichloroplatinum] | 131% | 138% | 131% | 117% | 137% | 171% | 146% | 28 µg/mL | 2.3 µg/mL | 134% | 135% | 9.8 µg/mL | 23 µg/mL | 8.5 µg/mL | % T/C ([1]; 10 mg/kg i.p.): 138%; anti-tumour activity [10]: very strong anti-tumour activity; ratio IC50 A2780/DDP to IC50 A2780 [4, 11]: 12.6; T-C (mean time for tumours to reach 1 gram, treated relative to untreated) ([6]; 3 mg/kg i.v.): 18.3 days; T-C (mean time for tumours to reach 1 gram, treated relative to untreated) ([6]; 4 mg/kg i.v.): 16.3 days; % T/C ([6]; 5 mg/kg i.v.): 131%; T-C (mean time for tumours to reach 1 gram, treated relative to untreated) ([6]; 5 mg/kg i.v.): 20.5 days; % T/C ([6]; 6 mg/kg i.v.): 121%; T-C (mean time for tumours to reach 1 gram, treated relative to untreated) ([6]; 6 mg/kg i.v.): 20 days; ratio IC50 A2780/124 to IC50 A2780 [8, 11]: 10
